This assay deals with T1, human M4 muscarinic acetylcholine receptor (Homo sapiens, UniProt P08173).
T1 construct: expressed in transfected cells; host or cells: CHO-K1
T1 sequence (P08173 1-479): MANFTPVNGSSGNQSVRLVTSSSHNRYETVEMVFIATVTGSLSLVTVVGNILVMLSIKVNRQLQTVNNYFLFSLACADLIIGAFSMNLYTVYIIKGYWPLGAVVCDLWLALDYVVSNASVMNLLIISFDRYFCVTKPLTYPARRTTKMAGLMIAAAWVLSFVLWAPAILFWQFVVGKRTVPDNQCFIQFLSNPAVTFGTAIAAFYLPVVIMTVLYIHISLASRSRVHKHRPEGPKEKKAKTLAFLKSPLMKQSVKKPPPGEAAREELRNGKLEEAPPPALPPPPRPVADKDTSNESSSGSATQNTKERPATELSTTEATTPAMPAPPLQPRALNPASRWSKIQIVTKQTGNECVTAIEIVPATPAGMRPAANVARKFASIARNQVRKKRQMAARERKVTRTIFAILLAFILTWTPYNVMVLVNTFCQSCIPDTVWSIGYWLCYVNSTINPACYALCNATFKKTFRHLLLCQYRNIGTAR
Put plainly: human FLIPR-based M4 PAM assay (Ca2+ mobilization, CHO-K1 cells with human M4 receptor and Gαqi5). The following applies: acetylcholine at 20% of maximum response, read-out: M4 PAM IP. Format: cell-based. The method, boiled down:
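CHO-K1 cells stably expressing human M4 and chimeric Gαqi5 were dye-loaded ~1 h at 37 °C and read for Ca2+ fluorescence. Compound followed by acetylcholine at an EC20 (sometimes an EC70 third addition); inflection point from a 4-parameter logistic fit.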
(Calcium flux is commonly read through the fluorescence of an indicator in the cells.)
For the compound `Cc1c(N2CC[C@@H](Oc3cnn(C)c3)C(F)(F)C2)nc2c(c1C)C(=O)NC2` [Example 336B, (R)-2-(3,3-difluoro-4-((1-methyl-1H-pyrazol-4-yl)oxy)piperidin-1-yl)-3,4-dimethyl-6,7-dihydro-5H-pyrrolo[3,4-b]pyridin-5-one], the EC50 was 0.65 µM. As for `Cc1cc2c(nc1N1CC[C@@H](Oc3ccc4c(cnn4C)c3)[C@@H](F)C1)CN(CCO)C2=O` [Example 267E, 2-((3S,4R)-3-fluoro-4-((1-methyl-1H-indazol-5-yl)oxy)piperidin-1-yl)-6-(2-hydroxyethyl)-3-methyl-6,7-dihydro-5H-pyrrolo[3,4-b]pyridin-5-one], the figure is 0.069 µM. As to `Cc1cc2c(nc1N1CCC(OCCC3(C)CC3)CC1)CNC2=O` [Example 65A, 3-methyl-2-(4-(2-(1-methylcyclopropyl)ethoxy)piperidin-1-yl)-6,7-dihydro-5H-pyrrolo[3,4-b]pyridin-5-one], the EC50 came to 0.164 µM. As for `Cc1cc2c(nc1N1CCC(Oc3cccc(F)c3)CC1)CNC2=O` [Example 71], the figure is 0.042 µM; as for `Cc1cc2c(nc1N1CCC(Oc3ccc4nn(C)cc4c3)CC1)CNC2=O` [Example 202A, 3-methyl-2-(4-((2-methyl-2H-indazol-5-yl)oxy)piperidin-1-yl)-6,7-dihydro-5H-pyrrolo[3,4-b]pyridin-5-one], 0.096 µM; as for `COc1ccc(OC2CCN(c3nc4c(c(C)c3C)C(=O)N(C)[C@@H]4CO)CC2)cn1` [Example 343A, (S)-7-(hydroxymethyl)-2-(4-((6-methoxypyridin-3-yl)oxy)piperidin-1-yl)-3,4,6-trimethyl-6,7-dihydro-5H-pyrrolo[3,4-b]pyridin-5-one], 0.027 µM.

As to `Cc1cc2c(nc1N1CCC(Oc3ccc4[nH]nc(Br)c4c3)CC1)CNC2=O` [Example 315, 2-(4-((3-bromo-1H-indazol-5-yl)oxy)piperidin-1-yl)-3-methyl-6,7-dihydro-5H-pyrrolo[3,4-b]pyridin-5-one], the EC50 came to 0.08 µM.

In the case of `Cc1cc2c(nc1N1CCC(Oc3ccccc3)C(F)(F)C1)CNC2=O` (single isomer, unassigned) [Example 158B, trans-2-(3,3-Difluoro-4-phenoxypiperidin-1-yl)-3-methyl-6,7-dihydro-5H-pyrrolo[3,4-b]pyridin-5-one], the EC50 is 0.017 µM. As for `Cc1cc2c(nc1N1CCC(Oc3ccc4c(c3)C[S+]([O-])C4)CC1)CNC2=O` (stereo not drawn) [Example 167A, 3-methyl-2-(4-((2-oxido-1,3-dihydrobenzo[c]thio-phen-5-yl)oxy)piperidin-1-yl)-6,7-dihydro-5H-pyrrolo[3,4-b]pyridin-5-one], the figure is 0.188 µM; as for `Cc1cc2c(nc1N1CCC(Oc3ccc(OCCN4CCC4)nc3)CC1)CNC2=O` [Example 173, 2-(4-((6-(2-(azetidin-1-yl)ethoxy)pyridin-3-yl)oxy)piperidin-1-yl)-3-methyl-6,7-dihydro-5H-pyrrolo[3,4-b]pyridin-5-one], 0.313 µM. To `Cc1cc2c(nc1N1CCC(Oc3ccc4c(c3)C[S+]([O-])C4)CC1)CNC2=O` (single isomer, unassigned) [Example 168A] belongs 0.209 µM; to `CCc1cc2c(nc1N1CCC(OCC3(C)CC3)CC1)[C@@H](CO)N(C)C2=O` [Example 341, (S)-3-ethyl-7-(hydroxymethyl)-6-methyl-2-(4-((1-methylcyclopropyl)methoxy)piperidin-1-yl)-6,7-dihydro-5H-pyrrolo[3,4-b]pyridin-5-one], 0.023 µM; to `Cc1c(N2CCC(Oc3ccccc3)CC2)nc2c(c1C)C(=O)N(CCO)C2` [Example 265, 6-(2-hydroxyethyl)-3,4-dimethyl-2-(4-phenoxypiperidin-1-yl)-6,7-dihydro-5H-pyrrolo[3,4-b]pyridin-5-one], 0.046 µM. For `COCCn1cc(OC2CCN(c3nc4c(cc3C)C(=O)NC4)CC2)cn1` [Example 312A, 2-(4-((1-(2-methoxyethyl)-1H-pyrazol-4-yl)oxy)piperidin-1-yl)-3-methyl-6,7-dihydro-5H-pyrrolo[3,4-b]pyridin-5-one], the EC50 stood at 2.51 µM. As for `Cc1cc2c(nc1N1CCC(Oc3ccc4c(c3)CN(C)C4)CC1)CNC2=O` [Example 290, 3-Methyl-2-(4-((2-methylisoindolin-5-yl)oxy)piperidin-1-yl)-6,7-dihydro-5H-pyrrolo[3,4-b]pyridin-5-one], the figure is 0.353 µM.

Consider `COc1ccc(OC2CCN(c3nc4c(cc3C)C(=O)N[C@H]4CO)CC2)cn1` (single isomer, unassigned) [Example 271A], for which the EC50 is 0.941 µM.

Turning to `Cc1c(N2CCC(OCC3CCC3)CC2)nc2c(c1C)C(=O)NC2` [Example 330, 2-(4-(cyclobutylmethoxy)piperidin-1-yl)-3,4-dimethyl-6,7-dihydro-5H-pyrrolo[3,4-b]pyridin-5-one], the EC50 came to 0.051 µM. As for `Cc1cc2c(nc1N1CCC(OCC(O)C(F)(F)F)CC1)CNC2=O` (single isomer, unassigned) [Example 181B], the figure is 0.183 µM; as for `CCc1cc2c(nc1N1CC[C@H](OCC3(C)CC3)C(F)(F)C1)CNC2=O` (single isomer, unassigned) [Example 374B], 0.045 µM; as for `COc1ccc(OC2CCN(c3nc4c(cc3C)C(=O)N(C)C4C)CC2)cn1` (stereo not drawn) [Example 16, 2-(4-((6-methoxypyridin-3-yl)oxy)piperidin-1-yl)-3,6,7-trimethyl-6,7-dihydro-5H-pyrrolo[3,4-b]pyridin-5-one], 0.081 µM.

As for `Cc1cc2c(nc1N1CCC(OCC34CC(C3)C4)CC1)CNC2=O` [Example 187, 2-(4-(bicyclo[1.1.1]pentan-1-ylmethoxy)piperidin-1-yl)-3-methyl-6,7-dihydro-5H-pyrrolo[3,4-b]pyridin-5-one], the EC50 stood at 0.223 µM. Take `Cc1c(N2CCC(Oc3ccc4c(c3)COC4)CC2)nc2c(c1C)C(=O)NC2` [Example 328, 2-(4-((1,3-Dihydro-2-benzofuran-5-yl)oxy)piperidin-1-yl)-3,4-dimethyl-6,7-dihydro-5H-pyrrolo[3,4-b]pyridin-5-one]: the EC50 was 0.061 µM. To `Cc1cc2c(nc1N1CCC(Oc3cnc4c(c3)CCO4)CC1)CNC2=O` [Example 201A, 2-(4-((2,3-dihydrofuro[2,3-b]pyridin-5-yl)oxy)piperidin-1-yl)-3-methyl-6,7-dihydro-5H-pyrrolo[3,4-b]pyridin-5-one] belongs 0.068 µM; to `Cc1cc2c(nc1N1CCC(Oc3cnc4c(c3)CC[C@@H]4O)CC1)CNC2=O` (single isomer, unassigned) [Example 324C], 1.14 µM; to `Cc1cc2c(nc1N1[C@@H]3CC[C@H]1C[C@H](Oc1cccc(C#N)c1)C3)CNC2=O` [Example 96, 3-((exo-8-(3-methyl-5-oxo-6,7-dihydro-5H-pyrrolo[3,4-b]pyridin-2-yl)-8-azabicyclo[3.2.1]octan-3-yl)oxy)benzonitrile], 1.43 µM.

As for `Cc1cc2c(nc1N1CCC(Oc3ccc4c(c3)CNCC4)CC1)CNC2=O` [Example 146, 3-methyl-2-(4-((1,2,3,4-tetrahydroisoquinolin-7-yl)oxy)piperidin-1-yl)-6,7-dihydro-5H-pyrrolo[3,4-b]pyridin-5-one], the EC50 is 0.286 µM.

As for `CCc1cc2c(nc1N1CCC(Oc3ccc4c(c3)OCC4)CC1)[C@H](CO)N(C)C2=O` [Example 366, (R)-2-(4-((2,3-dihydrobenzofuran-6-yl)oxy)piperidin-1-yl)-3-ethyl-7-(hydroxymethyl)-6-methyl-6,7-dihydro-5H-pyrrolo[3,4-b]pyridin-5-one], the EC50 stood at 1.24 µM. As for `Cc1cc2c(nc1N1CCC(Oc3ccc4c(c3)c(C)nn4CCO)CC1)CNC2=O` [Example 153, 2-(4-((1-(2-hydroxyethyl)-3-methyl-1H-indazol-5-yl)oxy)piperidin-1-yl)-3-methyl-6,7-dihydro-5H-pyrrolo[3,4-b]pyridin-5-one], the figure is 0.528 µM; as for `COc1ccc(OC2[C@@H]3C[C@H]2CN(c2nc4c(cc2C)C(=O)NC4)C3)cn1` (single isomer, unassigned) [Example 185A], 8.63 µM.

In the case of `Cc1cc2c(nc1N1CCC(Oc3ccc4c(c3)COC4)CC1)[C@@H](CO)N(C)C2=O` [Example 281, (S)-2-(4-((1,3-dihydro-2-benzofuran-5-yl)oxy)piperidin-1-yl)-7-(hydroxymethyl)-3,6-dimethyl-6,7-dihydro-5H-pyrrolo[3,4-b]pyridin-5-one], the EC50 amounted to 0.023 µM. To `Cc1cc2c(nc1N1CC[C@@H](Oc3cccc(C#N)c3)[C@H](O)C1)CNC2=O` [Example 43A, 3-(((3R,4R)-3-hydroxy-1-(3-methyl-5-oxo-6,7-dihydro-5H-pyrrolo[3,4-b]pyridin-2-yl)piperidin-4-yl)oxy)benzonitrile] belongs 0.155 µM; to `Cc1nc2ccc(OC3CCN(c4nc5c(cc4C)C(=O)NC5)CC3)cc2s1` [Example 122, 3-methyl-2-(4-((2-methylbenzo[d]thiazol-6-yl)oxy)piperidin-1-yl)-6,7-dihydro-5H-pyrrolo[3,4-b]pyridin-5-one], 2.11 µM; to `Cc1cc2c(nc1N1CCC(Oc3cccc(S(C)(=O)=O)c3)CC1)CNC2=O` [Example 47A, 3-methyl-2-(4-(3-(methylsulfonyl)phenoxy)piperidin-1-yl)-6,7-dihydro-5H-pyrrolo[3,4-b]pyridin-5-one], 0.287 µM.

Values taken from US10329289B2, “6,7-dihydro-5H-pyrrolo[3,4-B]pyridin-5-one allosteric modulators of the M4 muscarinic acetylcholine receptor” (Merck Sharp & Dohme Corp., priority 2015, dated 2019).
